Experimental data from patent publication US11964990B2, “1,3,4,7-tetrahydro-2H-pyrrolo[3′,2′:5,6]pyrido[2,3-b][1,4]oxazepine bcl-2 inhibitors” (AbbVie Inc., priority 2022, dated 2024).

Tests used:
Bcl-xL protein = Bcl-xL protein (Homo sapiens (Human), UniProt Q07817); assay: TR-FRET binding assay, Bcl-xL (F-Bak peptide probe); conditions: Bak BH3 peptide probe, Wang's equation
Description: (§1) Determination of the utility of compounds having Formula (I) or Formula (II) as binders to and inhibitors of anti-apoptotic Bcl-2 proteins was performed using the Time Resolved-Fluorescence Resonance Energy Transfer (TR-FRET) Assay. Tb-anti-GST antibody was purchased from Invitrogen (Catalog No. PV4216).
A human Bcl-xL encoding sequence was cloned into a pET41A vector. The protein was expressed with E. coli. BL21(DE3)-T1R strain in OETB autoinduction medium at 30° C. for 25 hours. The cell pellets were resuspended in lysis buffer (50 mM Tris, 140 mM NaCl, 1 mM DTT, 10% Glycerol, 0.1% Triton X-100, pH 7.5) and lysed with Microfluidizer. The Bcl-xL protein in clarified cell-lysate was purified with GST affinity chromatography. The eluate was dialyzed in the storage buffer (1×PBS, 10% Glycerol, 2 mM DTT, 1 mM Sodium Azide, pH 7.4) and stored at −80° C.
(§2) […] of a protein (Bcl-2 or Bcl-xL)/probe/antibody mixture pre-equilibrated for one hour in assay buffer was added to each well at final concentrations listed in Table 6 below.
(§3) The samples were then mixed on a shaker for 1 minute and equilibrated for an additional 3 hours at room temperature. For each assay plate, a probe/antibody and protein/antibody/probe mixture were included as a negative and a positive control, respectively. Fluorescence was measured on the Envision (Perkin Elmer) using a 340/35 nm excitation filter and 520/525 (F-Bak) and 495/510 nm (Tb-labeled anti-GST antibody) emission filters. Inhibition constants (Ki) were determined using Wang's equation (Wang FEBS Lett. 1995, 360, 111-114). The TR-FRET assay can be performed in the presence of varying concentrations of human serum (HS) to determine apparent half maximal inhibitory concentration (IC50) after HS protein binding.
(§4) Inhibition constants were determined using Wang's equation (Wang FEBS Lett. 1995, 360:111-4).

Molt-4 cells = assay: Cell viability counter screen assay (CellTiter-Glo) in Molt-4 cells; format: cell-based; conditions: 24 hours, 10% Human Serum, 50% decrease in cell viability
Method in brief: (§5)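 RS4;11 or Molt-4 cells (3000 per well) in RPMI 1640 with 10% human serum treated with compound for 24 h, 5% CO2. Viability measured by CellTiter-Glo as percent of control; EC50 from sigmoidal dose-response curves.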

Bcl-2 protein = Bcl-2 protein (Homo sapiens (Human), UniProt P10415); assay: TR-FRET binding assay, Bcl-2 (F-Bak peptide probe); conditions: Bak BH3 peptide probe, Wang's equation
Description: as §1
A Bcl-2 human encoding sequence was cloned into a pET41A vector (Novagen). The protein was expressed with E. coli. BL21(DE3)-T1R strain in OETB autoinduction medium at 30° C. for 25 hours. The cell pellets were resuspended in lysis buffer (50 mM Tris, 140 mM NaCl, 1 mM DTT, 10% Glycerol, 2 mM MgCl2, pH 7.3) and lysed with Microfluidizer. The Bcl-2 protein in clarified cell-lysate was purified with affinity chromatography (GST and Ni-NTA). The eluate was loaded onto a Superdex 75 column and further purified with a Q Sepharose column. The protein was purified on a phenyl hydrophobic interaction column and dialyzed in the storage buffer (50 mM Tris, 50 mM NaCl, 2 mM DTT, pH 7.5) and stored at −80° C.
as §2, §3, §4

RS4;11 cells = assay: Cell viability assay (CellTiter-Glo) in RS4;11 cell line; format: cell-based; conditions: 24 hours, 10% Human Serum, 50% decrease in cell viability
Method in brief: as §5

Sequence of Bcl-xL protein (Q07817 other isoform, or with tags, fused parts or gaps): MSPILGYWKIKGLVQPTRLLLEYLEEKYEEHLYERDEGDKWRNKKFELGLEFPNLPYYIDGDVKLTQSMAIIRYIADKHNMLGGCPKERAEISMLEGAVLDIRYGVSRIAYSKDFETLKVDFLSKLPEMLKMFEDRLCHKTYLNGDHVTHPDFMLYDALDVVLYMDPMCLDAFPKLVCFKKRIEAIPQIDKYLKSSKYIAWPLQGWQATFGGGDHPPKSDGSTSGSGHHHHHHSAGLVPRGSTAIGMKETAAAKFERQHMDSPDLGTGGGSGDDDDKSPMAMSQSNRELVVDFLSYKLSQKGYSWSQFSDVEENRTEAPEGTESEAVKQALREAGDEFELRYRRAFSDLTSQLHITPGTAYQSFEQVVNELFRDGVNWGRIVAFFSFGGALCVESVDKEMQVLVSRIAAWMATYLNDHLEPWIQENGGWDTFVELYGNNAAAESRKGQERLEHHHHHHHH
Sequence of Bcl-2 protein (P10415 other isoform, or with tags, fused parts or gaps): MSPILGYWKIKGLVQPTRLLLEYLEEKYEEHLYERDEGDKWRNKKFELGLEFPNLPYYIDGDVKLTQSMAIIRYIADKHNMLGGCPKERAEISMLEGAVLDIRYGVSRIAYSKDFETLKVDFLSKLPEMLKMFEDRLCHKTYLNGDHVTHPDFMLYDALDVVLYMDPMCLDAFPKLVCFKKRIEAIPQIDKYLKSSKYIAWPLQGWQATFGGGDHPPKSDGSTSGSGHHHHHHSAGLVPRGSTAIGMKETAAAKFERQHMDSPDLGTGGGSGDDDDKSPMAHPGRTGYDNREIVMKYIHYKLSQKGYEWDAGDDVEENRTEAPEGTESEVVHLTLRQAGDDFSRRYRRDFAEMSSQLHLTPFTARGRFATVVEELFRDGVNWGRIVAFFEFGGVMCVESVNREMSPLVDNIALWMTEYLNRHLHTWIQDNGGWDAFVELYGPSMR

Compound	Ki (Bcl-xL protein) [nM]	EC50 (Molt-4 cells) [nM]	Ki (Bcl-2 protein) [nM]	EC50 (RS4;11 cells) [nM]
CC1(C)CC(c2ccc(Cl)cc2)=C2CN3CCN(c4ccc(C(=O)NS(=O)(=O)c5ccc(OC[C@H]6CC[C@H](N7CCOCC7)CC6)c(Cl)c5)c(N5CCCOc6nc7[nH]ccc7cc65)c4)C[C@H]3COCCCO[C@@H]2C1 [Example 38, N-((3-chloro-4-(((1r,4r)-4-morpholinocyclohexyl)methoxy)phenyl)sulfonyl)-4-((4aS,10aR)-14-(4-chlorophenyl)-12,12-dimethyl-1,2,4a,5,8,9,10a,11,13,15-decahydro-7H,12H-benzo[f]pyrazino[2,1-c][1,8]dioxa[4]azacycloundecin-3(4H)-yl)-2-(3,4-dihydro-2H-pyrrolo[3′,2′:5,6]pyrido[2,3-b][1,4]oxazepin-1(7H)-yl)benzamide]	5.62	2340	0.108	26
CC1(C)CC(c2ccc(Cl)cc2)=C2CN3CCN(c4ccc(C(=O)NS(=O)(=O)c5cnc(OC[C@H]6CC[C@](C)(O)CC6)c(Cl)c5)c(N5CCCOc6nc7[nH]ccc7cc65)c4)C[C@H]3COCCCO[C@@H]2C1 [Example 42, N-((5-chloro-6-(((1r,4r)-4-hydroxy-4-methylcyclohexyl)methoxy)pyridin-3-yl)sulfonyl)-4-((4aS,10aR)-14-(4-chlorophenyl)-12,12-dimethyl-1,2,4a,5,8,9,10a,11,13,15-decahydro-7H,12H-benzo[f]pyrazino[2,1-c][1,8]dioxa[4]azacycloundecin-3(4H)-yl)-2-(3,4-dihydro-2H-pyrrolo[3′,2′:5,6]pyrido[2,3-h][1,4]oxazepin-1(7H)-yl)benzamide]	25.1	> 10000	0.159	11.3
CC1(C)CC(c2ccc(Cl)cc2)=C2CN3CCN(c4ccc(C(=O)NS(=O)(=O)c5ccc(OC[C@H]6CC[C@](C)(O)CC6)c(Cl)c5)c(N5CCCOc6nc7[nH]ccc7cc65)c4)C[C@H]3COCCCO[C@@H]2C1 [Example 43, N-((3-chloro-4-(((1r,4r)-4-hydroxy-4-methylcyclohexyl)methoxy)phenyl)sulfonyl)-4-((4aS,10aR)-14-(4-chlorophenyl)-12,12-dimethyl-1,2,4a,5,8,9,10a,11,13,15-decahydro-7H,12H-benzo[f]pyrazino[2,1-c][1,8]dioxa[4]azacycloundecin-3(4H)-yl)-2-(3,4-dihydro-2H-pyrrolo[3′,2′:5,6]pyrido[2,3-b][1,4]oxazepin-1(7H)-yl)benzamide]	29.7	> 10000	0.0853	17.7
CC1(C)CC(c2ccc(Cl)cc2)=C2CN3CCN(c4ccc(C(=O)NS(=O)(=O)c5ccc(OC[C@H]6CC[C@](C)(O)CC6)c([N+](=O)[O-])c5)c(N5CCCOc6nc7[nH]ccc7cc65)c4)C[C@H]3COCCCO[C@@H]2C1 [Example 44, 4-((4aS,10aR)-14-(4-chlorophenyl)-12,12-dimethyl-1,2,4a,5,8,9,10a,11,13,15-decahydro-7H,12H-benzo[f]pyrazino[2,1-c][1,8]dioxa[4]azacycloundecin-3(4H)-yl)-2-(3,4-dihydro-2H-pyrrolo[3′,2′:5,6]pyrido[2,3-b][1,4]oxazepin-1(7H)-yl)-N-((4-(((1r,4r)-4-hydroxy-4-methylcyclohexyl)methoxy)-3-nitrophenyl)sulfonyl)benzamide]	7.98	2270	0.0898	4.39
CC1(C)CC(c2ccc(Cl)cc2)=C2CN3CCN(c4ccc(C(=O)NS(=O)(=O)c5ccc(NCC6CCCCO6)c([N+](=O)[O-])c5)c(N5CCCOc6nc7[nH]ccc7cc65)c4)C[C@H]3COCCCO[C@@H]2C1 (stereo partly drawn) [Example 45, 4-((4aS,10aR)-14-(4-chlorophenyl)-12,12-dimethyl-1,2,4a,5,8,9,10a,11,13,15-decahydro-7H,12H-benzo[f]pyrazino[2,1-c][1,8]dioxa[4]azacycloundecin-3(4H)-yl)-2-(3,4-dihydro-2H-pyrrolo[3′,2′:5,6]pyrido[2,3-b][1,4]oxazepin-1(7H)-yl)-N-((3-nitro-4-(((tetrahydro-2H-pyran-2-yl)methyl)amino)phenyl)sulfonyl)benzamide]	27.8	> 10000	0.238	10.7
COC[C@]1(F)C[C@H](CNc2ccc(S(=O)(=O)NC(=O)c3ccc(N4CCN5CC6=C(c7ccc(Cl)cc7)CC(C)(C)C[C@H]6OCCCOC[C@@H]5C4)cc3N3CCCOc4nc5[nH]ccc5cc43)cc2[N+](=O)[O-])C1 [Example 47, 4-((4aS,10aR)-14-(4-chlorophenyl)-12,12-dimethyl-1,2,4a,5,8,9,10a,11,13,15-decahydro-7H,12H-benzo[f]pyrazino[2,1-c][1,8]dioxa[4]azacycloundecin-3(4H)-yl)-2-(3,4-dihydro-2H-pyrrolo[3′,2′:5,6]pyrido[2,3-b][1,4]oxazepin-1(7H)-yl)-N-((4-((((1r,3r)-3-fluoro-3-(methoxymethyl)cyclobutyl)methyl)amino)-3-nitrophenyl)sulfonyl)benzamide]	25.8	> 10000	0.28	10.9
CO[C@]1(CF)C[C@@H](CNc2ccc(S(=O)(=O)NC(=O)c3ccc(N4CCN5CC6=C(c7ccc(Cl)cc7)CC(C)(C)C[C@H]6OCCCOC[C@@H]5C4)cc3N3CCCOc4nc5[nH]ccc5cc43)cc2[N+](=O)[O-])C1 [Example 48, 4-((4aS,10aR)-14-(4-chlorophenyl)-12,12-dimethyl-1,2,4a,5,8,9,10a,11,13,15-decahydro-7H,12H-benzo[f]pyrazino[2,1-c][1,8]dioxa[4]azacycloundecin-3(4H)-yl)-2-(3,4-dihydro-2H-pyrrolo[3′,2′:5,6]pyrido[2,3-b][1,4]oxazepin-1(7H)-yl)-N-((4-((((1r,3r)-3-(fluoromethyl)-3-methoxycyclobutyl)methyl)amino)-3-nitrophenyl)sulfonyl)benzamide]	28.6	5840	0.206	18.1
CC1(C)CC(c2ccc(Cl)cc2)=C2CN3CCN(c4ccc(C(=O)NS(=O)(=O)c5cnc(OC[C@H]6CC[C@@](C)(O)CC6)c(Cl)c5)c(N5CCCOc6nc7[nH]ccc7cc65)c4)C[C@H]3COCCCO[C@@H]2C1 [Example 50, N-((5-chloro-6-(((1s,4s)-4-hydroxy-4-methylcyclohexyl)methoxy)pyridin-3-yl)sulfonyl)-4-((4aS,10aR)-14-(4-chlorophenyl)-12,12-dimethyl-1,2,4a,5,8,9,10a,11,13,15-decahydro-7H,12H-benzo[f]pyrazino[2,1-c][1,8]dioxa[4]azacycloundecin-3(4H)-yl)-2-(3,4-dihydro-2H-pyrrolo[3′,2′:5,6]pyrido[2,3-b][1,4]oxazepin-1(7H)-yl)benzamide]	39.7	> 10000	0.237	41.9
CO[C@@H]1CC[C@@H](COc2ccc(S(=O)(=O)NC(=O)c3ccc(N4CCN5CC6=C(c7ccc(Cl)cc7)CC(C)(C)C[C@H]6OCCCOC[C@@H]5C4)cc3N3CCCOc4nc5[nH]ccc5cc43)cc2[N+](=O)[O-])OC1 [Example 51]	18.9	> 10000	0.1	9.6
